{"source": "patent US20030152597A1", "about": "“Use of at least one sapogenin for prevening the skin or ageing symptoms” (priority 2000, published 2003)", "system": "collagenase produced by Clostridium Histolyticum", "test": "Inhibition of collagenase activity (DQ-gelatin fluorescence)", "type": "biochemical", "settings": "decrease in collagenase activity relative to the control", "protocol": "The effect of an extract of wild yam on the inhibition of the activity of collagenase produced by Clostridium Histolyticum was evaluated. Although different from a human enzyme, this collagenase is used on account of its ability to digest human collagen. […]\nThe control consisted of collagenase without test product. Thus, the activity of the control constitutes 100% collagenase activity and thus 0% inhibition of the said activity.\nThe products were preincubated with the enzyme for 10 minutes at room temperature, and DQ-gelatin was then added and the fluorescence obtained on degradation of the substrate was recorded for 10 minutes (excitation 480 nm; emission 538 nm) on a SpectraMax spectrofluorimetre (Molecular Devices); the results were processed using Soft Max Pro software.\nThe percentages indicated represent the decrease in collagenase activity relative to the control."}
{"smiles": "c1cnc2c(c1)ccc1cccnc12", "note": "[Phenanthroline, phenanthroline]", "values": [{"measurement": "% inhibition (n = 4)", "setting": "0.1 mM in ethanol", "result": 96, "unit": "%"}, {"measurement": "% inhibition (n = 4)", "setting": "0.25 mM in ethanol", "result": 40, "unit": "%"}, {"measurement": "% inhibition (n = 4)", "setting": "0.5 mM in ethanol", "result": 65, "unit": "%"}]}
